This note sets out measurements from ChEMBL document CHEMBL1155923, “Anti-HBV agents. Part 1: Synthesis of alisol A derivatives: a new class of hepatitis B virus inhibitors” (Bioorg Med Chem Lett, 2008).

For series [1], the system named is Hepatitis B virus. Briefly: Antiviral activity against hepatitis B virus-infected human HepG2.2.15 cells assessed as inhibition of HBV surface antigen secretion. The class given is functional, organism-based. As to conditions: HepG2 2.2.15.
The subject of series [2] is Hepatitis B virus. The series is described as follows: Antiviral activity against hepatitis B virus-infected human HepG2.2.15 cells assessed as inhibition of HBV e antigen secretion. As to conditions: HepG2 2.2.15. The series is classed as functional, organism-based.
Series [3] is described as follows: Cytotoxicity against human HepG2.2.15 cells. The series is classed as cell-based, HepG2 2.2.15.
A short description of series [4]: Selectivity index, ratio of CC50 for human HepG2.2.15 cells to IC50 for HBV surface antigen secretion. The series is classed as functional.
Series [5] is described as follows: Selectivity index, ratio of CC50 for human HepG2.2.15 cells to IC50 for HBV e antigen secretion. The series is classed as functional.

One may read the IC50 as the concentration at which inhibition is half-maximal. One may read the CC50 as the concentration at which the toxic effect on the cells reaches its halfway point. For `CCC(=O)O[C@@H](C[C@@H](C)C1=C2C[C@H](OC(=O)CC)[C@H]3[C@@]4(C)CCC(=O)C(C)(C)[C@@H]4CC[C@]3(C)[C@@]2(C)CC1)[C@@H](OC(=O)CC)C(C)(C)O`, the IC50 in the series with Hepatitis B virus [1] and in the series with Hepatitis B virus [2] was greater than 1400 µM each time. The CC50 in series [3] is greater than 1400 µM.
Turning to `CCC(=O)O[C@@H](C[C@@H](C)[C@]12CC[C@@]3(C)[C@@]1(C[C@H](OC(=O)CC)[C@H]1[C@@]4(C)CCC(=O)C(C)(C)[C@@H]4CC[C@@]13C)O2)[C@@H](OC(=O)CC)C(C)(C)O`, the IC50 in the series on Hepatitis B virus [1] and in the series on Hepatitis B virus [2] was greater than 1200 µM in each case. In series [3], the CC50 is greater than 1200 µM.
Turning to `C=C(C)[C@H](OC(=O)CC)[C@H](C[C@@H](C)C1=C2C[C@H](OC(=O)CC)[C@H]3[C@@]4(C)CCC(=O)C(C)(C)[C@@H]4CC[C@]3(C)[C@@]2(C)CC1)OC(=O)CC`, the half-inhibitory concentration (IC50) with Hepatitis B virus [1] and with Hepatitis B virus [2] was greater than 12000 µM in each case. In addition, the CC50 in series [3] is greater than 1200 µM.
For `CC(=O)O[C@@H](C[C@@H](C)C1=C2C[C@H](OC(C)=O)[C@H]3[C@@]4(C)CCC(=O)C(C)(C)[C@@H]4CC[C@]3(C)[C@@]2(C)CC1)[C@@H](OC(C)=O)C(C)(C)O`, the half-inhibitory concentration (IC50) in the series on Hepatitis B virus [1] and in the series on Hepatitis B virus [2] was greater than 2000 µM throughout. The half-maximal cytotoxic concentration (CC50) in series [3] is greater than 2000 µM.
`C=C(C)[C@H](OC(C)=O)[C@H](C[C@@H](C)[C@]12CC[C@@]3(C)[C@@]1(C[C@H](OC(C)=O)[C@H]1[C@@]4(C)CCC(=O)C(C)(C)[C@@H]4CC[C@@]13C)O2)OC(C)=O`: the entries for the “Ratio CC50/IC50” value in series [4] and in series [5] were greater than 108 and greater than 93, respectively. Further, the figures for the IC50 with Hepatitis B virus [1] and with Hepatitis B virus [2] were 24 µM and 28 µM, respectively. This molecule returned a cytotoxic concentration (CC50) in series [3] greater than 2600 µM.
On to `C[C@H](C[C@H](O)[C@@H](O)C(C)(C)O)[C@]12CC[C@@]3(C)[C@@]1(C[C@H](O)[C@H]1[C@@]4(C)CCC(=O)C(C)(C)[C@@H]4CC[C@@]13C)O2`, for which the “Ratio CC50/IC50” value was determined as 9.6 in series [4] and 0.39 in series [5]. The IC50 with Hepatitis B virus [1] was 45 µM; in the series with Hepatitis B virus [2] it was 1100 µM. The cytotoxic concentration (CC50) in series [3] was 430 µM.
As for `C[C@H](C[C@H](O)[C@@H](O)C(C)(C)O)C1=C2C[C@H](O)[C@H]3[C@@]4(C)CCCC(C)(C)[C@@H]4CC[C@]3(C)[C@@]2(C)CC1`, the “Ratio CC50/IC50” value in series [4] was less than 1; in series [5] it was less than 0.016. In addition, the half-inhibitory concentration (IC50) with Hepatitis B virus [1] was 80 µM; in the series on Hepatitis B virus [2], 5100 µM. Besides, the CC50 in series [3] was less than 80 µM.
As for `CC(=O)O[C@@H](C[C@@H](C)[C@]12CC[C@@]3(C)[C@@]1(C[C@H](OC(C)=O)[C@H]1[C@@]4(C)CCC(=O)C(C)(C)[C@@H]4CC[C@@]13C)O2)[C@@H](OC(C)=O)C(C)(C)O`, the half-inhibitory concentration (IC50) in the series on Hepatitis B virus [1] and in the series on Hepatitis B virus [2] was greater than 2000 µM in each case. In series [3], this molecule came in with a CC50 greater than 2000 µM.
On to `C[C@H](C[C@H](OC(=O)c1ccccc1)[C@@H](OC(=O)c1ccccc1)C(C)(C)O)C1=C2C[C@H](OC(=O)c3ccccc3)[C@H]3[C@@]4(C)CCC(=O)C(C)(C)[C@@H]4CC[C@]3(C)[C@@]2(C)CC1`, for which the IC50 in the series on Hepatitis B virus [1] and in the series with Hepatitis B virus [2] was greater than 1500 µM each time. The molecule further displayed a half-maximal cytotoxic concentration (CC50) in series [3] greater than 1500 µM.
For `C=C(C)[C@H](OC(=O)c1ccccc1)[C@H](C[C@@H](C)[C@]12CC[C@@]3(C)[C@@]1(C[C@H](OC(=O)c1ccccc1)[C@H]1[C@@]4(C)CCC(=O)C(C)(C)[C@@H]4CC[C@@]13C)O2)OC(=O)c1ccccc1`, the half-inhibitory concentration (IC50) with Hepatitis B virus [1] and in the series with Hepatitis B virus [2] was greater than 1600 µM in each case. The molecule also yielded a CC50 in series [3] greater than 1600 µM.
For the molecule `C[C@H](C[C@H](OC(=O)/C=C/c1ccccc1)[C@@H](OC(=O)/C=C/c1ccccc1)C(C)(C)O)C1=C2C[C@H](OC(=O)/C=C/c3ccccc3)[C@H]3[C@@]4(C)CCC(=O)C(C)(C)[C@@H]4CC[C@]3(C)[C@@]2(C)CC1`, the concentration for half-maximal inhibition (IC50) in the series on Hepatitis B virus [1] and in the series on Hepatitis B virus [2] was greater than 1400 µM throughout. This molecule gave a CC50 in series [3] greater than 1400 µM.
With `Cc1ccc(S(=O)(=O)N/N=C2\CC[C@@]3(C)[C@@H](CC[C@@]4(C)[C@H]3[C@@H](O)CC3=C([C@H](C)C[C@H](O)[C@@H](O)C(C)(C)O)CC[C@@]34C)C2(C)C)cc1`, the “Ratio CC50/IC50” value in series [4] and in series [5] was less than 1 throughout. The half-maximal inhibitory concentration (IC50) with Hepatitis B virus [1] and in the series with Hepatitis B virus [2] was 29 µM throughout. For the same molecule, the CC50 in series [3] is less than 29 µM.
Turning to `C=C(C)[C@H](OC(=O)c1ccccc1)[C@H](C[C@@H](C)C1=C2C[C@H](OC(=O)c3ccccc3)[C@H]3[C@@]4(C)CCC(=O)C(C)(C)[C@@H]4CC[C@]3(C)[C@@]2(C)CC1)OC(=O)c1ccccc1`, the half-inhibitory concentration (IC50) in the series on Hepatitis B virus [1] and in the series with Hepatitis B virus [2] was greater than 2300 µM each time. In addition, the half-maximal cytotoxic concentration (CC50) in series [3] is greater than 2300 µM.
As for `C=C(C)[C@H](OC(=O)CC)[C@H](C[C@@H](C)[C@]12CC[C@@]3(C)[C@@]1(C[C@H](OC(=O)CC)[C@H]1[C@@]4(C)CCC(=O)C(C)(C)[C@@H]4CC[C@@]13C)O2)OC(=O)CC`, in series [4], the “Ratio CC50/IC50” value was greater than 16. Also, the half-maximal inhibitory concentration (IC50) was 160 µM in the series with Hepatitis B virus [1] and greater than 2500 µM with Hepatitis B virus [2]. Also, the CC50 in series [3] was greater than 2500 µM.
Regarding `CC(C)C(=O)O[C@@H](C[C@@H](C)[C@]12CC[C@@]3(C)[C@@]1(C[C@H](OC(=O)C(C)C)[C@H]1[C@@]4(C)CCC(=O)C(C)(C)[C@@H]4CC[C@@]13C)O2)[C@@H](OC(=O)C(C)C)C(C)(C)O`, the IC50 with Hepatitis B virus [1] and in the series with Hepatitis B virus [2] was greater than 1900 µM each time. For the same molecule, the cytotoxic concentration (CC50) in series [3] was greater than 1900 µM.
`C=C(C)[C@H](OC(=O)/C=C/c1ccccc1)[C@H](C[C@@H](C)C1=C2C[C@H](OC(=O)/C=C/c3ccccc3)[C@H]3[C@@]4(C)CCC(=O)C(C)(C)[C@@H]4CC[C@]3(C)[C@@]2(C)CC1)OC(=O)/C=C/c1ccccc1`: the 50% inhibitory concentration (IC50) in the series on Hepatitis B virus [1] and in the series with Hepatitis B virus [2] was greater than 1800 µM throughout. The molecule further displayed a CC50 in series [3] greater than 1800 µM.
Take `CC(C)C(=O)O[C@@H](C[C@@H](C)C1=C2C[C@H](OC(=O)C(C)C)[C@H]3[C@@]4(C)CCC(=O)C(C)(C)[C@@H]4CC[C@]3(C)[C@@]2(C)CC1)[C@@H](OC(=O)C(C)C)C(C)(C)O`: the “Ratio CC50/IC50” value is recorded as greater than 1.3 in series [4] and greater than 2.4 in series [5]. The concentration for half-maximal inhibition (IC50) in the series on Hepatitis B virus [1] is 1700 µM; in the series on Hepatitis B virus [2], 900 µM. In series [3], this molecule yielded a CC50 greater than 2200 µM.
`C=C(C)[C@H](OC(=O)C(C)C)[C@H](C[C@@H](C)[C@]12CC[C@@]3(C)[C@@]1(C[C@H](OC(=O)C(C)C)[C@H]1[C@@]4(C)CCC(=O)C(C)(C)[C@@H]4CC[C@@]13C)O2)OC(=O)C(C)C`: the IC50 in the series on Hepatitis B virus [1] and with Hepatitis B virus [2] was greater than 1300 µM each time. In addition, in series [3], the half-maximal cytotoxic concentration (CC50) is greater than 1300 µM.
As to `C=C(C)[C@H](OC(=O)/C=C/c1ccccc1)[C@H](C[C@@H](C)[C@]12CC[C@@]3(C)[C@@]1(C[C@H](OC(=O)/C=C/c1ccccc1)[C@H]1[C@@]4(C)CCC(=O)C(C)(C)[C@@H]4CC[C@@]13C)O2)OC(=O)/C=C/c1ccccc1`, the IC50 with Hepatitis B virus [1] and in the series on Hepatitis B virus [2] was greater than 1600 µM each time. Moreover, in series [3], the CC50 is greater than 1600 µM.
Turning to `C[C@H](C[C@H](OC(=O)c1ccccc1)[C@@H](OC(=O)c1ccccc1)C(C)(C)O)[C@]12CC[C@@]3(C)[C@@]1(C[C@H](OC(=O)c1ccccc1)[C@H]1[C@@]4(C)CCC(=O)C(C)(C)[C@@H]4CC[C@@]13C)O2`, the figures for the half-maximal inhibitory concentration (IC50) with Hepatitis B virus [1] and in the series on Hepatitis B virus [2] were greater than 1700 µM and 1100 µM, respectively. In addition, the “Ratio CC50/IC50” value in series [5] is given as greater than 1.5. Moreover, the CC50 in series [3] is greater than 1700 µM.
Regarding `C=C(C)[C@H](OC(=O)C(C)C)[C@H](C[C@@H](C)C1=C2C[C@H](OC(=O)C(C)C)[C@H]3[C@@]4(C)CCC(=O)C(C)(C)[C@@H]4CC[C@]3(C)[C@@]2(C)CC1)OC(=O)C(C)C`, the IC50 with Hepatitis B virus [1] and in the series with Hepatitis B virus [2] was greater than 1600 µM each time. The molecule also showed a CC50 in series [3] greater than 1600 µM.
As for `C=C(C)[C@H](OC(C)=O)[C@H](C[C@@H](C)C1=C2C[C@H](OC(C)=O)[C@H]3[C@@]4(C)CCC(=O)C(C)(C)[C@@H]4CC[C@]3(C)[C@@]2(C)CC1)OC(C)=O`, the “Ratio CC50/IC50” value in series [4] and in series [5] was 18 in each case. Besides, the values for the IC50 with Hepatitis B virus [1] and in the series with Hepatitis B virus [2] were 28 µM and 29 µM, respectively. For the same molecule, the CC50 in series [3] came out at 520 µM.
For the molecule `C[C@H](C[C@H](OC(=O)/C=C/c1ccccc1)[C@@H](OC(=O)/C=C/c1ccccc1)C(C)(C)O)[C@]12CC[C@@]3(C)[C@@]1(C[C@H](OC(=O)/C=C/c1ccccc1)[C@H]1[C@@]4(C)CCC(=O)C(C)(C)[C@@H]4CC[C@@]13C)O2`, the IC50 with Hepatitis B virus [1] is greater than 1300 µM; with Hepatitis B virus [2] it was 1000 µM. Also, the “Ratio CC50/IC50” value in series [5] is greater than 1.3. Besides, the CC50 in series [3] was greater than 1300 µM.
In the case of `C[C@H](C[C@H](O)[C@@H](O)C(C)(C)O)C1=C2C[C@H](O)[C@H]3[C@@]4(C)CCC(=O)C(C)(C)[C@@H]4CC[C@]3(C)[C@@]2(C)CC1` [ALISOL A], the “Ratio CC50/IC50” value in series [4] is 1.6; in series [5] it was less than 0.03. Further, the results for the IC50 with Hepatitis B virus [1] and in the series with Hepatitis B virus [2] were 39 µM and greater than 2400 µM, respectively. The molecule also returned a CC50 in series [3] of 62 µM.
